Test results: patent US6133275A, “3-phenylpyrrolidine alpha-1 adrenergic compounds” (Abbott Laboratories, priority 1998, dated 2000)
Where a name gives a salt, the structure may show the parent alone.

Key:
α1b (Hamster) = target: T1, α1b (Hamster) (Mesocricetus auratus, UniProt P18841); experiment: Radioligand binding, displacement of [3H]-prazosin from cloned α1b (hamster) expressed in LTK cells; conditions: [3H]-prazosin 0.2 nM; cloned hamster α1b in LTK cell membranes; 25° C., 50 minutes
T1 sequence (P18841 1-515): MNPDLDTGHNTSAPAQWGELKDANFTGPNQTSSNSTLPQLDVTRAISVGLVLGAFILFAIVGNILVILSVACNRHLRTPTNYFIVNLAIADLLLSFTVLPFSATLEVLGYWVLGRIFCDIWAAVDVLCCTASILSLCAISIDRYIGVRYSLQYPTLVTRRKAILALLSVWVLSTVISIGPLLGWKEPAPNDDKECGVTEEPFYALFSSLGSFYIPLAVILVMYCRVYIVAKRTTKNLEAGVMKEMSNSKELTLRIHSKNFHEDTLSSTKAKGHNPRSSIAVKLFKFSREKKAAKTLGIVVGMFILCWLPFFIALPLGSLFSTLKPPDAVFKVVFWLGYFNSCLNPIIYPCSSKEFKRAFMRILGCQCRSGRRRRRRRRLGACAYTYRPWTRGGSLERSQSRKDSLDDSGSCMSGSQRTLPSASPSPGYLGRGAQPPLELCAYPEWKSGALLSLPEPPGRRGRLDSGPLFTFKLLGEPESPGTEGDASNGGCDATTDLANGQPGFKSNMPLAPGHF

α1d (rat) = target: T2, α1d (rat) (Rattus norvegicus, UniProt P23944); experiment: Radioligand binding, displacement of [3H]-prazosin from cloned α1d (rat) expressed in LTK cells; conditions: [3H]-prazosin 0.2 nM; cloned rat α1d in LTK cell membranes; 25° C., 50 minutes
T2 sequence (P23944 1-561): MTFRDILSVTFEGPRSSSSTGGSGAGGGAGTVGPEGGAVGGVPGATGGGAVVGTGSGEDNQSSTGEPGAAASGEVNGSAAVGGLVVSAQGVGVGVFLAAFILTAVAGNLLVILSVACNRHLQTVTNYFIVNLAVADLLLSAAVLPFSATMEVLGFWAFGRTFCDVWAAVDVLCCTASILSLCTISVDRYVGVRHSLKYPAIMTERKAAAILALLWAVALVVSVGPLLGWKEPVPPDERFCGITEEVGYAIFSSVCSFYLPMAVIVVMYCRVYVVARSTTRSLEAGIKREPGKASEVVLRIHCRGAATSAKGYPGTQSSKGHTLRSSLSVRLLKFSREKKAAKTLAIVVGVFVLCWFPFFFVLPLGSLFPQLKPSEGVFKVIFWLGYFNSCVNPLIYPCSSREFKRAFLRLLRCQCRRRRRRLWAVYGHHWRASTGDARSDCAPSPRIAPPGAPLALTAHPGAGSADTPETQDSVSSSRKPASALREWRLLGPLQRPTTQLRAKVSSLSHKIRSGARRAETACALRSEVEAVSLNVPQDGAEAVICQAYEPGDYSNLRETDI

α1a (Bovine) = target: T3, α1a (Bovine) (Bos taurus, UniProt P18130); experiment: Radioligand binding, displacement of [3H]-prazosin from cloned α1a (bovine) expressed in LTK cells; conditions: [3H]-prazosin 0.2 nM; cloned bovine α1a in LTK cell membranes; 25° C., 50 minutes
T3 sequence (P18130 1-466): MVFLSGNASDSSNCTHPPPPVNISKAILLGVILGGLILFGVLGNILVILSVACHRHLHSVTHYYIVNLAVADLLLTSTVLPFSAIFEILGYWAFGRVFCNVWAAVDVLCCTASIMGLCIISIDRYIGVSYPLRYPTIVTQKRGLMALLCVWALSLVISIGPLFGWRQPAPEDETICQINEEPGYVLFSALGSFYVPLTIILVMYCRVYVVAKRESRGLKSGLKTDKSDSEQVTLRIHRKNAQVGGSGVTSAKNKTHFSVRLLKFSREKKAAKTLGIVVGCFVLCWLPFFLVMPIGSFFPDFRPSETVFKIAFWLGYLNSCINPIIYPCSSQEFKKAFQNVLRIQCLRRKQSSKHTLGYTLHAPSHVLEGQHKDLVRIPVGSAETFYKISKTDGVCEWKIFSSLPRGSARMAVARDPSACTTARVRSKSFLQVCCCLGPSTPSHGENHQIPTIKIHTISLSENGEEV

α1a (Rat) = target: T4, α1a (Rat) (Rattus norvegicus, UniProt P43140); experiment: Radioligand binding, displacement of [3H]-prazosin from cloned α1a (rat) expressed in LTK cells; conditions: [3H]-prazosin 0.2 nM; cloned rat α1a in LTK cell membranes; 25° C., 50 minutes
T4 sequence (P43140 1-466): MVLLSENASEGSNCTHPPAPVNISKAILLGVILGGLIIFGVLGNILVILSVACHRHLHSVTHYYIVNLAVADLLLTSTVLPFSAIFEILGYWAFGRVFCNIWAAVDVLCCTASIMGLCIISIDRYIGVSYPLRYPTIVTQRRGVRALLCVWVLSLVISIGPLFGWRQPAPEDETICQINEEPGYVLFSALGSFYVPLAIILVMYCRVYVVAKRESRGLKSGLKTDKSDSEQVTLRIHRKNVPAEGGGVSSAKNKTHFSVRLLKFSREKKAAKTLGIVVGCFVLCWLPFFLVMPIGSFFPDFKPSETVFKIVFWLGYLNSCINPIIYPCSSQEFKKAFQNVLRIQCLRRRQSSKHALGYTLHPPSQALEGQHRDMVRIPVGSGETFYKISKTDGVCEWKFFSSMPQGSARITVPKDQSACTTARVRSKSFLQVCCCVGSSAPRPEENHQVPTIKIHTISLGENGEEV

Compound	Ki (α1b (Hamster)) [nM]	Ki (α1d (rat)) [nM]	Ki (α1a (Bovine)) [nM]	Ki (α1a (Rat)) [nM]
COc1ccccc1[C@H]1CCN(CCCCn2c(=O)[nH]c3c(sc4ncccc43)c2=O)C1 [Example 8, (R)-3-[4-[3-(2-Methoxyphenyl)-1-pyrrolidinyl]butyl]pyrido[3',2':4,5]thieno[3,2-d]pyrimidine-2,4(1H,3H)-dione, Dihydrochloride]	1.76	0.09	0.06	0.12
COc1ccccc1[C@H]1CCN(CCCCN2C(=O)CCc3ccccc32)C1 [Example 19, (R)-3,4-dihydro-1-[4-[3-(2-methoxyphenyl)-1-pyrrolidinyl]butyl]-2(1H)-quinolinone Monohydrochloride]	0.93	0.23	0.15	0.57
COc1ccccc1[C@@H]1CCN(CCCCn2c(=O)[nH]c3c(sc4cccnc43)c2=O)C1 [Example 29, (S)-3-[4-[3-(2-methoxyphenyl)-1-pyrrolidinyl]butyl]pyrido[2',3':4,5]thieno[3,2-d]pyrimidine-2,4(1H,3H)-dione, Dihydrochloride]	4.02	2.02	0.69	1.98
COc1ccccc1[C@H]1CCN(CCCCN2C(=O)c3ccccc3C2=O)C1 [Example 12, (R)-2-[4-[3-(2-methoxyphenyl)-1-pyrrolidinyl]butyl]-1H-isoindole-1,3(2H)-dione, Monohydrochloride]	0.96	0.28	0.06	0.32
COc1ccccc1[C@H]1CCN(CCCCCn2c(=O)[nH]c3c(sc4cccnc43)c2=O)C1 [Example 7, (R)-3-[5-[3-(2-Methoxyphenyl)-1-pyrrolidinyl]pentyl]pyrido[2',3':4,5]thieno[3,2-d]pyrimidine-2,4(1H,3H)-dione, Dihydrochloride]	4.86	2.13	0.18	2.11
COc1ccccc1[C@H]1CCN(CCCCn2c(=O)[nH]c3c(sc4ccccc43)c2=O)C1 [Example 2, (R)-3-[4-[3-(2-Methoxyphenyl)-1-pyrrolidinyl]butyl]-[1]benzothieno[3,2-d]pyrimidine-2,4(1H,3H)-dione Monohydrochloride]	0.62	0.03	0.02	0.18
COc1ccccc1[C@H]1CCN(CCn2c(=O)[nH]c3c(sc4cccnc43)c2=O)C1 [Example 4, (R)-3-[2-[3-(2-Methoxyphenyl)-1-pyrrolidinyl]ethyl]pyrido[2',3':4,5]thieno[3,2-d]pyrimidine-2,4(1H,3H)-dione bis(hydrochloride) Salt]	1.52	2.38	0.83	2.61
COc1ccccc1[C@H]1CCN(CCn2c(=O)[nH]c3c(sc4ccccc43)c2=O)C1 [Example 1, (R)-3-[2-[3-(2-Methoxyphenyl)-1-pyrrolidinyl]ethyl]-[1]benzothieno[3,2-d]pyrimidine-2,4(1H,3H)-dione, Monohydrochloride]	0.94	0.82	0.13	1.8
COc1ccccc1[C@H]1CCN(CCCCn2c(=O)[nH]c3c(sc4ccc(Cl)nc43)c2=O)C1 [Example 10, (R)-8-chloro-3-[4-[3-(2-methoxyphenyl)-1-pyrrolidinyl]butyl]pyrido[2',3':4,5]thieno[3,2-d]pyrimidine-2,4(1H,3H)-dione, Dihydrochloride]	1.18	0.06	0.05	0.22
COc1cccc([C@H]2CCN(CCCCn3c(=O)[nH]c4c(sc5ncccc54)c3=O)C2)c1 [Example 24, (R)-3-[4-[3-(3-methoxyphenyl)-1-pyrrolidinyl]butyl]pyrido[3',2':4,5]thieno[3,2-d]pyrimidine-2,4(1H,3H)-dione, Dihydrochloride]	20	5.19	2.81	7.37
COc1ccccc1[C@@H]1CCN(CCn2c(=O)[nH]c3c(sc4cccnc43)c2=O)C1 [Example 27, (S)-3-[2-[3-(2-methoxyphenyl)-1-pyrrolidinyl]ethyl]pyrido[2',3':4,5]thieno[3,2-d]pyrimidine-2,4(1H,3 H)-dione, Dihydrochloride]	15.7	8.48	2.46	14.4
COc1cccc([C@H]2CCN(CCCn3c(=O)[nH]c4c(sc5cccnc54)c3=O)C2)c1 [Example 21, (R)-3-[3-[3-(3-methoxyphenyl)-1-pyrrolidinyl]propyl]pyrido[2',3':4,5]thieno[3,2-d]pyrimidine-2,4(1H,3 H)-dione, Dihydrochloride]	70.7	92.2	8	27.3
COc1ccc2sc3c(=O)n(CCCCN4CC[C@H](c5ccccc5OC)C4)c(=O)[nH]c3c2n1 [Example 11, (R)-8-methoxy-3-[4-[3-(2-methoxyphenyl)-1-pyrrolidinyl]butyl]pyrido-[2',3':4,5]thieno[3,2-d]pyrimidine-2,4(1H,3H)-dione, Dihydrochloride]	1.79	0.12	0.11	0.67
COc1cccc([C@H]2CCN(CCn3c(=O)[nH]c4c(sc5ncccc54)c3=O)C2)c1 [Example 23, (R)-3-[2-[3-(3-methoxyphenyl)-1-pyrrolidinyl]ethyl]pyrido[3',2':4,5]thieno[3,2-d]pyrimidine-2,4(1H,3H)-dione, Dihydrochloride]	331	86.4	27	134
COc1ccccc1[C@H]1CCN(CCCCCn2c(=O)[nH]c3c(sc4ncccc43)c2=O)C1 [Example 9, (R)-3-[5-[3-(2-methoxyphenyl)-1-pyrrolidinyl]pentyl]pyrido[3',2':4,5]thieno[3,2-d]pyrimidine-2,4(1H,3H)-dione, Dihydrochloride]	7.38	2.35	0.32	3.3
COc1cccc([C@H]2CCN(CCn3c(=O)[nH]c4c(sc5ccccc54)c3=O)C2)c1 [Example 3, (R)-3-[2-[3-(3-Methoxyphenyl)-1-pyrrolidinyl]ethyl]-[1]benzothieno[3,2-d]pyrimidine-2,4(1H,3H)-dione Monohydrochloride]	59.7	20	5.95	34
COc1ccccc1[C@H]1CCN(CCCCN2C(=O)c3ccccc3S2(=O)=O)C1 [Example 17, (R)-2-[4-[3-(2-methoxyphenyl)-1-pyrrolidinyl]butyl]-1,2-benzoisothiazol-3(2H)-one, 1,1-dioxide Monohydrochloride]	1.1	0.22	0.03	0.13
